Measurements published in patent US11840525B2, “Use of AURKB small-molecule inhibitors for treatment of non-small cell lung cancer” (Nanjing China-Australia Institute of Translational Medicine …, priority 2016, dated 2023).

Tests used:
AURKB = AURKB (Homo sapiens, UniProt Q96GD4); assay: In vitro phosphorylation (kinase activity) assay with Flag-AURKB and histone H3; type: biochemical; parameters: made in house; host or cells: 293T cells (transfected with pcDNA-AURKB-Flag); settings: 2 μM of TZ47, Flag-AURKB, histone H3 substrate
AURKB, sequence (Q96GD4 1-345 isoform Q96GD4-5): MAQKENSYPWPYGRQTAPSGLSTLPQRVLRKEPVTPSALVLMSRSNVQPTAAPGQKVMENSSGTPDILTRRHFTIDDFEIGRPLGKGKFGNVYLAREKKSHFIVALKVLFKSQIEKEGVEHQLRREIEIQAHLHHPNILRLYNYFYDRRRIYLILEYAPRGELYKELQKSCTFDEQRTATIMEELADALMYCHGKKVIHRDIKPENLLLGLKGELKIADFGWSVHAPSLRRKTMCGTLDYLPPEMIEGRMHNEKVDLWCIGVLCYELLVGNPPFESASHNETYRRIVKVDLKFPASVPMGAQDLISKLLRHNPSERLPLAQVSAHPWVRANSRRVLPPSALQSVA
Protocol: Thus, it is speculated that the treatment affected the activity of a kinase which was able to phosphorylate the H3S10. The following procedures were conducted to verify whether TZ47 inhibited the activity of AURKB directly. First, prokaryotic expression of AURKB protein and purification were performed and then a microscale thermophoresis (MST) was used to detect the binding between TZ47 and AURKB protein by testing the change of microscale thermophoresis caused by the hydrated layer (generally derived from the change of the structure/conformation of biomolecules) based on the directional movement of particles in a microscopic temperature gradient. […] Flag-tagged AURKB protein was then enriched by M2-flag beads (anti-Flag antibody conjugated) from the lysed liquid of 293T cells and used in the in-vitro kinase activity analysis. It can be seen from FIGS. 6A-6B that the Flag-AURKB protein had kinase activity and can phosphorylate histone H3.
The components were mixed according to the above specifications, and reacted at 30° C. for 30 min. After the reaction was completed, the reaction mixture was subjected to western blot assay.

[1] = tested on: H3S10 phosphorylation in A549 cells; assay: Western blot of histone modifications in A549 cells; type: cell-based
MCF-7 = assay: Growth inhibition of tumor cells, MCF-7; type: cell-based; settings: Homo sapiens, MCF7; read-out: IC50 against tumor cells, MCF-7
Protocol: (§1) Lung cancer cells A549 were separated into a 96-well plate and respectively added with 10 mM TZ47 stock solution to final concentrations of 0 μM, 0.1 μM, 0.5 μM, 1 μM, 2 μM, 4 μM and 8 μM in respective wells. Then the 96-well plate was incubated at 37° C. for 48 h and the growth of the cells was analyzed by a CCK-8 method. […] It can be seen from Table 1 that TZ47 also plays a desirable role in inhibiting the growth of other cancer cells including colorectal cancer, leukemia, liver cancer, melanoma, breast cancer and ovarian cancer.

CaoV-3 = assay: Growth inhibition of tumor cells, CaoV-3; type: cell-based; settings: Homo sapiens, read-out: IC50 against tumor cells, CaoV-3
Protocol: as §1

A549 cells [2] = assay: Apoptosis of A549 cells by flow cytometry; type: cell-based; settings: flow cytometer
Text: To elucidate how TZ47 induced the cell death, a flow cytometer was applied to measure and analyze the apoptosis of cells in solvent (DMSO) control group and the treatment groups with different gradients of TZ47 in the use of a cell apoptosis detection kit.

A549 cells [3] = assay: Autophagy of A549 cells (LC3 western blot); type: cell-based; settings: increasing concentration of TZ47
GST protein = GST protein (Schistosoma japonicum, UniProt P08515); assay: Microscale thermophoresis (MST) binding to control GST protein
GST protein, sequence (P08515 whole entry): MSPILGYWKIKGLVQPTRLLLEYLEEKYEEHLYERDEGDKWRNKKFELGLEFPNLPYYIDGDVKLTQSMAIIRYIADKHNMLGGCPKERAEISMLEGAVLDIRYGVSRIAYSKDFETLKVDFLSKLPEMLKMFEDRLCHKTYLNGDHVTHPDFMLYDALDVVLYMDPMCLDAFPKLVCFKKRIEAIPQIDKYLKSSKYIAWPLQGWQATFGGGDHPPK

HL-60 = assay: Growth inhibition of tumor cells, HL-60; type: cell-based; settings: Homo sapiens, read-out: IC50 against tumor cells, HL-60
Protocol: as §1

SMILES: c1ccc2c(Cc3[nH]c4ccccc4c3Cc3c[nH]c4ccccc34)c[nH]c2c1 [TZ47]
- kinase activity of AURKB (AURKB): completely inhibited
- degradation of AURKB protein in A549 cells ([1]; 48 h): did not mediate the degradation
- labeling of other histone residues close to H3S10 ([1]; A549 cells): failed to affect
- phosphorylation level of H3S10 in A549 cells ([1]; different concentrations, 48 h): significantly reduced
- IC50 (MCF-7): 1870 ± 150 nM
- IC50 (CaoV-3): 4.47 ± 0.12 µM
- apoptosis, 1 μM and 2 μM treatment groups (A549 cells [2]; 1 μM and 2 μM): no significant difference
- proportion of early apoptotic cells (A549 cells [2]; 4 μM): significantly increased
- degree of cell autophagy (A549 cells [3]): increased significantly
- binding to control GST protein (GST protein): did not bind
- IC50 (HL-60): 91.6 ± 2.2 nM
